For 26 compounds, IC50 results are on record in US12570666B2, “Furoindazole derivatives” (Bayer Aktiengesellschaft, priority 2019, dated 2026).

SMILES strings stand for the structures.

T1 sequence (Q9NQS5 whole entry): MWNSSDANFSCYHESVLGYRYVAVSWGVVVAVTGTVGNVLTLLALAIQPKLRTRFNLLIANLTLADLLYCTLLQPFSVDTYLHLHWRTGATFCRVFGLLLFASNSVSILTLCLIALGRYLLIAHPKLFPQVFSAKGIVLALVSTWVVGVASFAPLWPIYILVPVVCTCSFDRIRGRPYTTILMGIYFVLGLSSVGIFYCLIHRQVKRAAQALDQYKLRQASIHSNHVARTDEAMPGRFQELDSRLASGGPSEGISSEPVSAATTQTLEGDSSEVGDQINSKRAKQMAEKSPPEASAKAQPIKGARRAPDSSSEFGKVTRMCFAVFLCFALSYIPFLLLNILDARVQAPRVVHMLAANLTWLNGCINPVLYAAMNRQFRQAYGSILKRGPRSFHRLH

This test has as its target T1, human GPR84 receptor (Homo sapiens, UniProt Q9NQS5).
T1 construct: frozen aliquots prepared by acCELLerate; host or cells: CHO-K1
Kind of test: cAMP HTRF assay for identification of cellular GPR84 antagonists. Type of test: cell-based. Conditions: CHO-K1 cells stably expressing human GPR84; Forskolin + agonist 6-OAU (EC80); average or median values. Put shortly: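 Forskolin-stimulated CHO-K1 cells stably expressing human GPR84, agonist-suppressed cAMP measured by HTRF (665/620 ratio) after lysis. Compounds at 11 concentrations, 20 μM to 0.07 nM, duplicate; normalized to DMSO and no-agonist controls; IC50 by 4-parameter fit.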
For orientation: TR-FRET usually uses a lanthanide donor and a delayed reading to cut background.
As usually defined, the IC50 is the midpoint of a concentration-inhibition curve. As to `O=C(NC[C@@H]1COCCO1)c1oc2c(c1C(F)F)-c1nn(C[C@H]3COCCO3)cc1CC2` [Example 244, 8-(difluoromethyl)-N-{[(2R)-1,4-dioxan-2-yl]methyl}-2-{[(2S)-1,4-dioxan-2-yl]methyl}-4,5-dihydro-2H-furo[2,3-g]indazole-7-carboxamide], the IC50 was 53 nM.

`O=C(NC[C@@H]1CCCO1)c1oc2c(c1C(F)F)-c1nn(C[C@H]3COCCO3)cc1CC2` [Example 245, 8-(difluoromethyl)-2-{[(2S)-1,4-dioxan-2-yl]methyl}-N-{[(2S)-oxolan-2-yl]methyl}-4,5-dihydro-2H-furo[2,3-g]indazole-7-carboxamide]: the IC50 is 61 nM.

With `C[C@@H]1Cc2oc(C(=O)NC[C@@H]3CCCO3)c(C(F)(F)F)c2-c2nn(CC3CCOCC3)cc21` [Example 264, (4 or 4S)-4-methyl-2-[(oxan-4-yl)methyl]-N-{[(2S)-oxolan-2-yl]methyl}-8-(trifluoromethyl)-4,5-dihydro-2H-furo[2,3-g]indazole-7-carboxamide], the half-maximal inhibitory concentration (IC50) was 13 nM. `CC1(C)Cc2oc(C(=O)NC[C@@H]3COCCO3)c(C(F)(F)F)c2-c2nn(C[C@H]3COCCO3)cc21` [Example 267, N-{[(2R)-1,4-dioxan-2-yl]methyl}-2-{[(2S)-1,4-dioxan-2-yl]methyl}-4,4-dimethyl-8-(trifluoromethyl)-4,5-dihydro-2H-furo[2,3-g]indazole-7-carboxamide]: the IC50 turned out to be 57 nM. Then `CC1(C)Cc2oc(C(=O)NC[C@@H]3CCCO3)c(C(F)(F)F)c2-c2nn(C[C@H]3COCCO3)cc21` [Example 268, 2-{[(2S)-1,4-dioxan-2-yl]methyl}-4,4-dimethyl-N-{[(2S)-oxolan-2-yl]methyl}-8-(trifluoromethyl)-4,5-dihydro-2H-furo[2,3-g]indazole-7-carboxamide], with 38 nM; and `O=C(NC[C@@H]1COCCO1)c1oc2c(c1C(F)(F)F)-c1nn(C[C@H]3COCCO3)cc1C1(CCC1)C2` [Example 269, N-[(2R)-1,4-dioxan-2-ylmethyl]-2′-[(2S)-1,4-dioxan-2-ylmethyl]-8′-(trifluormethyl)-2′,5′-dihydrospiro[cyclobutan-1,4′-furo[2,3-g]indazol]-7′-carboxamide], with 27 nM; and `Cn1ccc(CNC(=O)c2oc3c(c2C(F)(F)F)-c2nn(C[C@H]4COCCO4)cc2C2(CCC2)C3)n1` [Example 270, 2′-[(2S)-1,4-dioxan-2-ylmethyl]-N-[(1-methyl-1H-pyrazol-3-yl)methyl]-8′-(trifluormethyl)-2′,5′-dihydrospiro[cyclobutan-1,4′-furo[2,3-g]indazol]-7′-carboxamide], with 192 nM. Then `O=C(NC[C@@H]1CCCO1)c1oc2c(c1C(F)(F)F)-c1nn(C[C@H]3COCCO3)cc1C1(CCC1)C2` [Example 271, 2′-[(2S)-1,4-dioxan-2-ylmethyl]-N-[(2S)-tetrahydrofuran-2-ylmethyl]-8′-(trifluormethyl)-2′,5′-dihydrospiro[cyclobutan-1,4′-furo[2,3-g]indazol]-7′-carboxamide], with 26 nM; and `O=C(NCc1ncco1)c1oc2c(c1C(F)(F)F)-c1nn(C[C@H]3COCCO3)cc1C1(CCC1)C2` [Example 272, 2′-{[(2S)-1,4-dioxan-2-yl]methyl}-N-[(1,3-oxazol-2-yl)methyl]-8′-(trifluoromethyl)-2′,51-dihydrospiro[cyclobutane-1,4′-furo[2,3-g]indazole]-7′-carboxamide], with 42 nM. Consider `O=C(NC[C@@H]1COCCO1)c1oc2c(c1C(F)(F)F)-c1nn(Cc3ccccn3)cc1C1(CCC1)C2` [Example 273, N-[(2R)-1,4-Dioxan-2-ylmethyl]-2′-(pyridin-2-ylmethyl)-8′-(trifluormethyl)-2′,5′-dihydrospiro[cyclobutan-1,4′-furo[2,3-g]indazol]-7′-carboxamide], for which the IC50 came out at 9 nM.

For the compound `O=C(NC[C@@H]1CCCO1)c1oc2c(c1C(F)(F)F)-c1nn(Cc3ccccn3)cc1C1(CCC1)C2` [Example 274, 2′-(Pyridin-2-ylmethyl)-N-[(2S)-tetrahydrofuran-2-ylmethyl]-8′-(trifluormethyl)-2′,5′-dihydrospiro[cyclobutan-1,4′-furo[2,3-g]indazol]-7′-carboxamide], the IC50 was 10 nM. The value for `O=C(NCc1ncco1)c1oc2c(c1C(F)(F)F)-c1nn(Cc3ccccn3)cc1C1(CCC1)C2` [Example 275, N-(1,3-Oxazol-2-ylmethyl)-2′-(pyridin-2-ylmethyl)-8′-(trifluormethyl)-2′,5′-dihydrospiro[cyclobutan-1,4′-furo[2,3-g]indazol]-7′-carboxamide] was 141 nM. Then `Cn1ccc(CNC(=O)c2oc3c(c2C(F)(F)F)-c2nn(Cc4ccccn4)cc2C2(CCC2)C3)n1` [Example 276, N-[(1-Methyl-1H-pyrazol-3-yl)methyl]-2′-(pyridin-2-ylmethyl)-8′-(trifluormethyl)-2′,5′-dihydrospiro[cyclobutan-1,4′-furo[2,3-g]indazol]-7′-carboxamide], with 156 nM. Then `Cc1ccc(Cn2cc3c(n2)-c2c(oc(C(=O)NC[C@@H]4CCCO4)c2C(F)(F)F)CC32CCC2)nc1` [Example 277, 2′-[(5-Methylpyridin-2-yl)methyl]-N-[(2S)-tetrahydrofuran-2-ylmethyl]-8′-(trifluormethyl)-2′,5′-dihydrospiro[cyclobutan-1,4′-furo[2,3-g]indazol]-7′-carboxamide], with 8 nM.

Consider `Cc1ccc(Cn2cc3c(n2)-c2c(oc(C(=O)NC[C@@H]4COCCO4)c2C(F)(F)F)CC32CCC2)nc1` [Example 278, N-[(2R)-1,4-Dioxan-2-ylmethyl]-2′-[(5-methylpyridin-2-yl)methyl]-8′-(trifluormethyl)-2′,5′-dihydrospiro[cyclobutan-1,4′-furo[2,3-g]indazol]-7′-carboxamide], for which the IC50 was found to be 10 nM.

Regarding `Cc1ccc(Cn2cc3c(n2)-c2c(oc(C(=O)NCc4ccn(C)n4)c2C(F)(F)F)CC32CCC2)nc1` [Example 279, N-[(1-Methyl-1H-pyrazol-3-yl)methyl]-2′-[(5-methylpyridin-2-yl)methyl]-8′-(trifluormethyl)-2′,5′-dihydrospiro[cyclobutan-1,4′-furo[2,3-g]indazol]-7′-carboxamide], the IC50 is 53 nM. The value for `O=C(NC[C@@H]1CCCO1)c1oc2c(c1C(F)(F)F)-c1nn(Cc3ccncc3)cc1C1(CCC1)C2` [Example 280, 2′-(Pyridin-4-ylmethyl)-N-[(2S)-tetrahydrofuran-2-ylmethyl]-8′-(trifluormethyl)-2′,5′-dihydrospiro[cyclobutan-1,4′-furo[2,3-g]indazol]-7′-carboxamide] was 16 nM; that for `O=C(NC[C@@H]1COCCO1)c1oc2c(c1C(F)(F)F)-c1nn(Cc3ccncc3)cc1C1(CCC1)C2` [Example 281, N-[(2R)-1,4-Dioxan-2-ylmethyl]-2′-(pyridin-4-ylmethyl)-8′-(trifluormethyl)-2′,5′-dihydrospiro[cyclobutan-1,4′-furo[2,3-g]indazol]-7′-carboxamide] was 21 nM.

Take `O=C(NC[C@@H]1COCCO1)c1oc2c(c1C(F)(F)F)-c1nn(CC3CC3)cc1CC2` [Example 282, 2-(cyclopropylmethyl)-N-{[(2R)-1,4-dioxan-2-yl]methyl}-8-(trifluoromethyl)-4,5-dihydro-2H-furo[2,3-g]indazole-7-carboxamide]: the IC50 turned out to be 10 nM. The value for `COCC(=O)N1CCC(Cn2cc3c(n2)-c2c(oc(C(=O)NC[C@@H]4COCCO4)c2C(F)(F)F)CC3)CC1` [Example 283, N-{[(2R)-1,4-dioxan-2-yl]methyl}-2-{[1-(methoxyacetyl)piperidin-4-yl]methyl}-8-(trifluoromethyl)-4,5-dihydro-2H-furo[2,3-g]indazole-7-carboxamide] was 139 nM; that for `COCC(=O)N1CCC(Cn2cc3c(n2)-c2c(oc(C(=O)NC[C@@H]4CCCO4)c2C(F)(F)F)CC3)CC1` [Example 284, 2-{[1-(methoxyacetyl)piperidin-4-yl]methyl}-N-{[(2S)-oxolan-2-yl]methyl}-8-(trifluoromethyl)-4,5-dihydro-2H-furo[2,3-g]indazole-7-carboxamide] was 86 nM; that for `O=C(NC[C@@H]1COCCO1)c1oc2c(c1C(F)(F)F)-c1nn(CC3CCN(C(=O)C4CC4)CC3)cc1CC2` [Example 285, 2-{[1-(cyclopropanecarbonyl)piperidin-4-yl]methyl}-N-{[(2R)-1,4-dioxan-2-yl]methyl}-8-(trifluoromethyl)-4,5-dihydro-2H-furo[2,3-g]indazole-7-carboxamide] was 21 nM.

Take `O=C(NC[C@@H]1CCCO1)c1oc2c(c1C(F)(F)F)-c1nn(CC3CCN(C(=O)C4CC4)CC3)cc1CC2` [Example 286, 2-{[1-(cyclopropanecarbonyl)piperidin-4-yl]methyl}-N-{[(2S)-oxolan-2-yl]methyl}-8-(trifluoromethyl)-4,5-dihydro-2H-furo[2,3-g]indazole-7-carboxamide]: the IC50 turned out to be 11 nM. The value for `O=C(NC[C@@H]1COCCO1)c1oc2c(c1C(F)(F)F)-c1nn(CC3CCN(C(=O)c4ccccc4)CC3)cc1CC2` [Example 287, 2-[(1-benzoylpiperidin-4-yl)methyl]-N-{[(2R)-1,4-dioxan-2-yl]methyl}-8-(trifluoromethyl)-4,5-dihydro-2H-furo[2,3-g]indazole-7-carboxamide] was 10 nM; that for `O=C(NC[C@@H]1CCCO1)c1oc2c(c1C(F)(F)F)-c1nn(CC3CCN(C(=O)c4ccccc4)CC3)cc1CC2` [Example 288, 2-[(1-benzoylpiperidin-4-yl)methyl]-N-{[(2S)-oxolan-2-yl]methyl}-8-(trifluoromethyl)-4,5-dihydro-2H-furo[2,3-g]indazole-7-carboxamide] was 101 nM. Turning to `Cc1c(C(=O)NC[C@@H]2CCCO2)oc2c1-c1nn(C(C)(C)c3cccnc3)cc1CC2` [Example 289, 8-methyl-N-{[(2S)-oxolan-2-yl]methyl}-2-[2-(pyridin-3-yl)propan-2-yl]-4,5-dihydro-2H-furo[2,3-g]indazole-7-carboxamide], the IC50 came to 801 nM.
